Source: patent EP3290412A1, “HIV-1 NUCLEOCAPSID INHIBITORS” (Università degli Studi di Siena, priority 2016, dated 2018)
Like-named read-outs stand apart in the source and are kept apart here.

Legend:
NC(11-55) = NC(11-55) (Human immunodeficiency virus type 1, UniProt P12493); experiment: NC inhibition assay (NC-induced cTAR DNA destabilization, fluorescence); format: biochemical, HIV-1; conditions: for inhibition at 100 µM: single point screening, positive = >25% inhibition at 100µM
Source text: The NC inhibition assay is based on the nucleic acid chaperone activity of the NC protein. NC destabilizes the secondary structure of cTAR DNA, the complementary sequence of the transactivation response element, which is involved in minus-strand DNA transfer during reverse transcription. In the assay, the cTAR sequence from the HIV-1 Mal strain (Bernacchi et al, J Mol Biol, 2002) is labeled with a dye (Alexa488 fluorophore) and a quencher 4-(4'-dimethylaminophenylazo)benzoic acid (Dabcyl) at its 5' and 3' ends, respectively. In the absence of destabilization, the close proximity of both cTAR ends results in a strong fluorescence quenching of the dye emission by the Dabcyl group. NC(11-55) added to cTAR at a ratio of 10 NC/cTAR melts the bottom of the cTAR stem, which increases the distance between the dye and the quencher and as a result increases the dye fluorescence signal [Shvadchak et al, (2009) Identification by high throughput screening of small compounds inhibiting the nucleic acid destabilization activity of the HIV-1 nucleocapsid protein. Biochimie, 916-923]. NCIs are expected to prevent the NC-induced destabilization of cTAR and thus reverse the NC-induced increase in the fluorescence of the labeled cTAR. The activity of the inhibitor is thus evaluated from the ratio of the fluorescence intensity observed in the presence of NC with the molecule to the one in the absence of the compound.
The doubly labelled cTAR DNA oligonucleotides (55nt) were synthesised and purified by IBA GmbH Nucleic Acids Product Supply (Göttingen, Germany). Extinction coefficient at 260 nm of 5.73 x 10^5 M^-1 cm^-1 was used to determine the concentration of cTAR.
The NC(11-55) peptide (Avilov et al, Antimicrob Agents Chemother, 2012) was synthesized by solid-phase peptide synthesis on a 433A synthesizer (ABI, Foster City, CA) as previously described [De Rocquigny H, (1991) First large scale chemical synthesis of the 72 amino acid HIV-1 nucleocapsid protein NCp7 in an active form. Biochem Biophys Res Commun., 1010-1018]. The peptide was stored lyophilized and was resuspended in water before use. The concentration of peptide was determined by using an extinction coefficient of 5.7 x 10^3 M^-1 cm^-1 at 280 nm. Next, 2.5 molar equivalents of ZnSO4 were added and pH was raised to its final value by adding buffer.
All experiments were performed at 20 °C in 25 mM Tris-HCl (pH 7.5), 30 mM NaCl, and 0.2 mM MgCl2. To evaluate the inhibition activity of compounds on NC-induced cTAR destabilization, cTAR DNA (0.1 µM) was preincubated with 1 µM NC(11-55) (molar ratio NC:cTAR = 10:1) for 15 min at room temperature before addition of compound. For single point screening, all compounds were tested at three final concentrations: 1 µM, 10 µM and 100 µM. For the IC50 determination, inhibition of NC-induced cTAR melting was monitored through addition of increasing concentrations of the selected molecules to the pre-formed NC(11-55)-cTAR complex. After the addition of compound, the mixture was incubated for 15 min at room temperature before the reading. The fluorescence signal was recorded with a plate reader Xenius (SAFAS Monaco) or Fluoromax 3 spectrofluorometer (Horiba Jobin-Yvon), and the excitation and emission wavelengths were 480 and 520 nm, respectively. The spectra were corrected for dilution, buffer fluorescence and screening effect (when it was required). In order to check the occurrence of aggregation, we performed additional reading of absorption with the plate reader Xenius (SAFAS Monaco) or Cary 4000 spectrophotometer (Agilent). […]

[1] = biological target: T1, full length (1-55) HIV-1 NCp7 (Human immunodeficiency virus type 1 group M subtype B, UniProt P12493); experiment: Electromobility Shift Assay (EMSA), competition for ssDNA binding; conditions: NCp7 300 nM, M13mp18 ssDNA; positive = >25% inhibition at 100µM
T1 construct: recombinant full length (1-55) HIV-1 NCp7 proteins; made in house
Source text: The assay used a recombinant full length (1-55) HIV-1 NCp7 proteins based on the NL4-3 sequence (GenBank accession number AF324493). The protein was expressed and purified as described in [Carteau, S., Gorelick, R. J. & Bushman, F. D. Coupled integration of human immunodeficiency virus type 1 cDNA ends by purified integrase in vitro: stimulation by the viral nucleocapsid protein. Journal of virology 73, 6670-6679 (1999)].
Competition for single-stranded (ss) DNA binding was realized by mixing 1 µL of serial dilutions of NC inhibitors (diluted in DMSO) with 44 µL of NCp7 (300 nM) in a reaction buffer (20 mM Tris-HCl pH 7.4, 2 mM MgCl2, 100 mM NaCl, 1 mM DTT). 5 µL of a 10 ng/µL (4 nM) solution of M13mp18 ssDNA (BayouBiolabs) were then added and the tubes were incubated for 25 minutes at 37 °C. The reaction was terminated by chilling the tubes on ice followed by the addition of 5 µL of a loading buffer (30% glycerol, 0.01% xylene cyanol, 10 mM Tris-HCl pH 7.4). Samples were then resolved on 25 cm-long, 1% (w/v) agarose gels (SeaKem LE Agarose, Lonza) in 0.5x TBE. Gels were run in a Sub-Cell GT cuvette (BioRad) for 18 h at room temperature at 3 V/cm, stained with SybrGold (Molecular Probes) and scanned for fluorescence using a Typhoon 8600 (GE Healthcare). The experiments were performed in triplicate. Competition efficiency was realized by measuring the relative distance in pixels between the unbound ssDNA control, the NCp7-bound ssDNA control and the bound ssDNA for each points of the titration with the ImageQuant software. The IC50 was estimated as the NC inhibitors concentrations for which the bound ssDNA migrated at 50% of the distance separating the bound from the unbound ssDNA.

[2] = test system: HIV-1 reference strain NL4-3; experiment: BiCycle assay (MT-2 then TZM-bl cells); format: cell-based; conditions: Human immunodeficiency virus 1, NL43, TZM-bl, read-out: BiCycle IC50 nM
Experimental: BiCycle Assay is cell based assay allowing the evaluation of the antiviral activity of HIV-1 inhibitors on the whole replication cycle of HIV-1. The assay consists in a first round of infection of the T-cell line MT-2 followed by infection of TZM-bl cells. MT-2 cells were seeded at a concentration of 50,000 cells/well in a 96-well plate and infected with the HIV-1 reference strain NL4-3 in presence of five-fold dilutions of the investigational compounds. After 72 hours, 50 µl of supernatant from each well, containing the virus produced in the first round of infection, were used to infect TZM-bl cells seeded in a 96-plate well at a concentration of 30,000 cells/well. Two days later, cells were lysed adding 40 µl of Glo Lysis Buffer (Promega) to each well for 5 minutes, then 40 µl of Brighy-Glo Luciferase Reagent (Promega) were added to each well for relative luminescence units (RLU) counting using Glo-Max Multi Detection System (Promega). RLU values from each well were elaborated using the GraphPad v5.0 software to calculate the IC50 of each compound.

HeLa cells = experiment: HeLa Proliferation assay (CellTiter Glo); format: cell-based; conditions: 72 hours
Experimental: HeLa cells (ATCC® CCL2™) in DMEM (Dulbecco Modified Eagle's Medium) without phenol red, Thermo, 11880, USA + 10% FBS + 1X PenStrep + 1X Gln or HUVEC cells (ATCC® CRL1730™) in EBM-2 (Endothelial Growth Basal Medium, Lonza, CC3156) + EGM-2 SingleQuotsTMSupplements and Growth Factors (Lonza, CC4176) + 1X Penicyllin-Streptomycin (PenStrep, ThermoFisher) + 1X Glutamine, are plated in a 384 well plate (Thermo, 4334-11, USA) to a density of 2000 cells per well and let recover for four hours at 37 °C, 5% CO2 in a humidified atmosphere. After the recovery, compounds are transferred to assay plates as per compound preparation method. Assay plates are then incubated at 37 °C, 5% CO2 in a humidified atmosphere for 72 hours. Cell viability is measured by the CellTiter Glo (Promega, G8080, USA) as per manufacturer instruction.

[3] = test system: Peripheral blood mononuclear cells (PBMC); format: cell-based; conditions: human, 7 days
Experimental: Peripheral blood mononuclear cells (PBMC) obtained from healthy donors by separation over Ficoll-Hypaque (GEHealthear-Cat.# GEH17-1440-02) were suspended at 2x10^6 cells/mL in RPMI 1640 (Biowest-Cat.#L0501-500) supplemented with 10% of heat-inactivated sterile fetal bovine serum (Gibco-Cat.#10270-106), 2 mmol/l L-glutamine (Biowest-Cat.#X0550-100), 50 U/mL Penicillin-50 µg/mL Streptomycin (Biowest-Cat.#L0022-100), referred to as complete medium (CM). PBMC were supplemented with 5 µg/mL of phytohaemagglutinin (Sigma Aldr-Cat.#L1668) and cultured in 75 cm^2 flasks (Sarsted-Cat.#833.911.002) for 2 days at 37 °C in a humidified atmosphere with 5% CO2.
PBMC were then washed in CM, counted by trypan blue exclusion (Gibco-Cat. #15250-061), centrifuged and suspended in fresh CM supplemented with 20 IU/mL recombinant human IL-2 (Miltenyi Biotec-Cat.#130-097-748) and seeded in a 96-well-tissue culture plate (Sarsted-Ca#831.837) at the density of 5x10^5 cells/mL (or 1x10^5 cells in 200 µL final CM volume per well). Cells were left untreated (negative control) or treated with different concentrations of the compounds.
After 7 days of incubation cytotoxicity was determined using Promega's CellTiter 96(R) AQueous One Solution Cell Proliferation Assay (MTS assay) (Promega-Cat.#G3581) according to the manufacturer's instuctions. This is a colorimetric method for determining the number of viable cells in proliferation or cytotoxicity assays. The MTS tetrazolium compound is bioreduced by cells into a colored formazan product that is soluble in tissue culture medium. This conversion is presumably accomplished by NADPH or NADH produced by dehydrogenase enzymes in metabolically active cells.
Briefly, MTS solution was thawed at room temperature, or in a water bath at 37 °C and 40 µL of MTS solution was pipeted into each well of the 96-well assay plate containing the samples in 200 µL of culture medium and incubated at 37 °C, 5% CO2 for 4 hours. The optical density was read at 490 nm using a 96-well plate reader (Tecan Infinite F50) and TD50 (toxic dose 50%, dose killing 50% of the cells compared to untreated control) value was calculated by interpolation of the curve obtained by plotting dose against percent mortality and by using "Magellan data analysis software". CM alone plus MTS solution was used as a blank, and cell culture well without compound was used as a cellular control.

[4] = cTAR DNA 0.1 µM, 1 µM NC(11-55), 20 °C, pH 7.5, read-out: NC inhibition IC50

| SMILES | IC50 (NC(11-55); [4]) [µM] | inhibition at 100 µM (NC(11-55)) [%] | EMSA screening results [1] | IC50 [2] [nM] | Proliferation assay HELA TD50 (HeLa cells) [µM] | IC50 (NC(11-55)) [µM] | Proliferation assay PBMC TD50 [3] [nM] |
| --- | --- | --- | --- | --- | --- | --- | --- |
| C[C@@H](NC(=O)c1nc(-c2cc([N+](=O)[O-])ccn2)nc(O)c1O)C1CCCCC1 [Compound 40, (R)-N-(1-cyclohexylethyl)-5,6-dihydroxy-2-(4-nitropyridin-2-yl)pyrimidine-4-carboxamide] | 6.35 | > 25 | Positive (A compound showing >25% inhibition when tested at 100µM concentration is considered as "positive") |  |  |  |  |
| C[C@@H](NC(=O)c1nc(-c2ncccc2NC(=O)OC(C)(C)C)nc(O)c1O)C1CCCCC1 [Compound 42, tert-butyl (R)-(2-(4-((1-cyclohexylethyl)carbamoyl)-5,6-dihydroxypyrimidin-2-yl)pyridin-3-yl)carbamate] | 14.5 | > 25 | Positive (A compound showing >25% inhibition when tested at 100µM concentration is considered as "positive") | 1600 |  |  |  |
| C[C@@H](NC(=O)c1nc(-c2ccc(NC(=O)c3cnco3)cn2)nc(O)c1O)C1CCCCC1 [Compound 82, (R)-N-(6-(4-((1-cyclohexylethyl)carbamoyl)-5,6-dihydroxypyrimidin-2-yl)pyridin-3-yl)oxazole-5-carboxamide] | 19.5 | > 25 | Positive (A compound showing >25% inhibition when tested at 100µM concentration is considered as "positive") |  | 6.5308 |  |  |
| O=C(NC1(C2CCCCC2)CC1)c1nc(-c2cc3ccccc3cn2)nc(O)c1O [Compound 83, N-(1-cyclohexylcyclopropyl)-5,6-dihydroxy-2-(isoquinolin-3-yl)pyrimidine-4-carboxamide] |  | > 25 | Positive (A compound showing >25% inhibition when tested at 100µM concentration is considered as "positive") |  |  |  |  |
| C[C@@H](NC(=O)c1nc(-c2ccc(N3CCN(C)CC3)cn2)nc(O)c1O)C1CCCCC1 [Compound 94, (R)-N-(1-cyclohexylethyl)-5,6-dihydroxy-2-(5-(4-methylpiperazin-1-yl)pyridin-2-yl)pyrimidine-4-carboxamide] |  | > 25 | Negative |  |  | 18 | 740 |
| CCNCc1ccnc(-c2nc(O)c(O)c(C(=O)N[C@H](C)C3CCCCC3)n2)c1 [Compound 95, (R)-N-(1-cyclohexylethyl)-2-(4-((ethylamino)methyl)pyridin-2-yl)-5,6-dihydroxypyrimidine-4-carboxamide] | 28 | > 25 | Negative |  |  |  |  |
| C[C@@H](NC(=O)c1nc(-c2cc(CNCc3ccccc3)ccn2)nc(O)c1O)C1CCCCC1 [Compound 96, (R)-2-(4-((benzylamino)methyl)pyridin-2-yl)-N (1-cyclohexylethyl)-5,6-dihydroxypyrimidine-4-carboxamide] |  | > 25 | Negative |  |  |  |  |
